Test results taken from ChEMBL document CHEMBL1129620 (J Med Chem, 1996).

Columns and labels:
Translocator protein [1] = biological target: T1, Translocator protein (Rattus norvegicus, UniProt P16257); assay: Inhibition of binding of [3H]-PK 11195 to peripheral-type benzodiazepine receptor (PBR) from rat cortex homogenate
Translocator protein [2] = biological target: T1, Translocator protein; assay: Binding affinity against peripheral-type benzodiazepine receptor (PBR) from rat cortex homogenate using [3H]-PK 11195 as radioligand
Translocator protein [3] = biological target: T1, Translocator protein; assay: Displacement [3H]-PK 11195 from rat adrenal peripheral-type benzodiazepine receptor (PBR)
Translocator protein [4] = biological target: T1, Translocator protein; assay: Displacement of [3H]-Ro- 5-4864 from rat adrenal peripheral-type benzodiazepine receptor (PBR)

T1 sequence (P16257 whole entry, looked up): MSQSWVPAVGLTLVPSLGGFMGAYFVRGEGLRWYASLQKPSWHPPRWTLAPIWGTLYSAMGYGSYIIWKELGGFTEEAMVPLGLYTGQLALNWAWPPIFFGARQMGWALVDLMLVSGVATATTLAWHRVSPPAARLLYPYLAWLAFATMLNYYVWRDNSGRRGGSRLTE

Compound | IC50 (Translocator protein [1]) [nM] | Ki (Translocator protein [2]) [nM] | Ki (Translocator protein [3]) [nM] | Ki (Translocator protein [4]) [nM]
CC(=O)OCC1=C(c2ccccc2)Oc2ccccc2-n2cccc21 | 1930 | 754 | – | –
CN(C)C(=O)OC1=C(c2ccc(N=[N+]=[N-])cc2)Oc2ccccc2-n2cccc21 | 3.6 | 1.4 | 4.8 | 3.6
CCC1=C(OC(=O)N(C)C)c2cccn2-c2ccccc2O1 | 589 | 230 | – | –
CCN(CC)C(=O)OC1=C(c2ccccc2)Oc2ccccc2-n2cccc21 | 0.68 | 0.26 | – | –
CC(=O)OC1=C(c2ccc(Cl)cc2)Sc2ccccc2-n2cccc21 | – | 11.7 | – | –
CC(=O)OC1=C(c2ccccc2)Oc2cc3ccccc3cc2-n2cccc21 | 278 | 108 | – | –
CN(C)C(=O)OC1=C(c2ccccc2)Sc2c(Cl)cccc2-n2cccc21 | – | 1.8 | 2.5 | 2.6
CCC1=C(OC(C)=O)c2cccn2-c2ccccc2O1 | > 5000 | – | – | –
COc1ccc(C2=C(OC(=O)c3cccnc3)c3cccn3-c3ccccc3S2)cc1 | > 100000 | – | – | –
CN(C)C(=O)OC1=C(c2ccccc2)Sc2ccccc2-n2cccc21 | – | 3.5 | – | –
CC(=O)C1=C(c2ccccc2)Oc2ccccc2-n2cccc21 | 64.6 | 25.2 | – | –
CC(=O)OC1=C(c2ccccc2)Sc2cc(C)ccc2-n2cccc21 | – | 44 | – | –
CCN(CC)C(=O)OC1=C(c2ccc(C)cc2)Oc2ccccc2-n2cccc21 | 0.94 | 0.36 | 1.9 | 1.9
O=C(OC1=C(c2ccccc2)Oc2ccccc2-n2cccc21)C1CCCCC1 | 81.9 | 32 | – | –
CC(=O)OC1=C(c2ccc3ccccc3c2)Oc2ccccc2-n2cccc21 | 76.6 | 30 | – | –
CN(C)C(=O)OC1=C(c2ccccc2)Oc2c(Cl)cccc2-n2cccc21 | 1.3 | 0.51 | – | –
CC(=O)OC1=C(c2ccccc2)Sc2ccc(C)cc2-n2cccc21 | – | 263 | – | –
CCN(CC)C(=S)OC1=C(c2ccccc2)Oc2ccccc2-n2cccc21 | 3.8 | 1.5 | – | –
CC(=O)OC1=C(c2ccc(C)cc2)Oc2ccccc2-n2cccc21 | 2.3 | 0.91 | 2.8 | 1.7
CC(=O)OC1=C(c2ccccc2)Oc2ccccc2-n2cccc21 | 12.1 | 4.7 | – | –
CC(=O)OC1=C(c2ccccc2)Sc2ccccc2-n2cccc21 | – | 7.6 | – | –
COC(=O)C1=C(c2ccccc2)Oc2ccccc2-n2cccc21 | 148 | 57.8 | – | –
